{"source": "the supplement of paper PMC10307832"}
{"compound": "O=C(Nc1cc(C(F)(F)F)cc(C(F)(F)F)c1)c1cc(Cl)ccc1O [IMD-0354] + COc1cc2c(Oc3ccc(NC(=O)C4(C(=O)Nc5ccc(F)cc5)CC4)cc3F)ccnc2cc1OCCCN1CCOCC1 [Foretinib] (partner 0.25 µM)", "assay": "relative viability (nuclei count vs DMSO), 5 days (fraction); higher = more cells survive", "conditions": "first compound 0.04 µM", "outline": "(§1)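 Relative viability is defined as nuclei in treated wells over nuclei in vehicle wells. Duplicate plates were run and medians reported. Lung cancer cell lines in 1536-well plates were dosed by pin tool one day after seeding, with one drug or with a fixed anchor-drug dose plus five library-drug doses (not always all listed) in √10 steps, and nuclei were counted after 5 days.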"}
{"cell line": "IA-LM", "relative viability": 1.17}
{"cell line": "LOU-NH91", "relative viability": 0.976}
{"cell line": "ChaGo-K-1", "relative viability": 0.998}
{"cell line": "NCI-H358", "relative viability": 0.753}
{"cell line": "NCI-H2405", "relative viability": 1.1}
{"cell line": "A549", "relative viability": 0.986}
{"cell line": "SW 900", "relative viability": 0.886}
{"cell line": "NCI-H661", "relative viability": 1.06}
{"cell line": "NCI-H1299", "relative viability": 1.03}
{"cell line": "NCI-H1563", "relative viability": 1.06}
{"cell line": "ABC-1", "relative viability": 0.876}
{"cell line": "NCI-H650", "relative viability": 1.07}
{"compound": "O=C(Nc1cc(C(F)(F)F)cc(C(F)(F)F)c1)c1cc(Cl)ccc1O [IMD-0354] + COc1cc2c(Oc3ccc(NC(=O)C4(C(=O)Nc5ccc(F)cc5)CC4)cc3F)ccnc2cc1OCCCN1CCOCC1 [Foretinib] (partner 0.25 µM)", "assay": "relative viability (nuclei count vs DMSO), 5 days (fraction); higher = more cells survive", "conditions": "first compound 0.1265 µM", "outline": "as §1"}
{"cell line": "NCI-H1623", "relative viability": 0.908}
{"cell line": "NCI-H727", "relative viability": 0.869}
{"cell line": "NCI-H1650", "relative viability": 1.1}
{"cell line": "EBC-1", "relative viability": 0.103}
{"cell line": "NCI-H1703", "relative viability": 0.347}
{"cell line": "NCI-H1993", "relative viability": 0.869}
{"cell line": "SK-LU-1", "relative viability": 0.752}
{"cell line": "NCI-H838", "relative viability": 0.925}
{"cell line": "LCLC-103H", "relative viability": 0.865}
{"cell line": "NCI-H520", "relative viability": 0.842}
{"cell line": "NCI-H2126", "relative viability": 1.23}
{"cell line": "EMC-BAC-2", "relative viability": 1}
{"cell line": "NCI-H2085", "relative viability": 0.922}
{"cell line": "Calu-6", "relative viability": 0.829}
{"cell line": "HCC-366", "relative viability": 1}
{"cell line": "NCI-H1666", "relative viability": 0.982}
{"cell line": "NCI-H596", "relative viability": 0.844}
{"cell line": "NCI-H1395", "relative viability": 0.969}
{"cell line": "NCI-H2087", "relative viability": 1.04}
{"cell line": "NCI-H2342", "relative viability": 0.98}
{"cell line": "LK-2", "relative viability": 1.14}
{"cell line": "H3255", "relative viability": 1.02}
{"cell line": "COR-L23", "relative viability": 0.844}
{"cell line": "COR-L 105", "relative viability": 0.808}
{"cell line": "IA-LM", "relative viability": 1.17}
{"cell line": "LOU-NH91", "relative viability": 0.981}
{"cell line": "ChaGo-K-1", "relative viability": 0.875}
{"cell line": "NCI-H358", "relative viability": 0.828}
{"cell line": "NCI-H2405", "relative viability": 1.02}
{"cell line": "A549", "relative viability": 1.02}
{"cell line": "SW 900", "relative viability": 0.787}
{"cell line": "NCI-H661", "relative viability": 1.01}
{"cell line": "NCI-H1299", "relative viability": 1.06}
{"cell line": "NCI-H1563", "relative viability": 0.936}
{"cell line": "ABC-1", "relative viability": 1.12}
{"cell line": "NCI-H650", "relative viability": 0.961}
{"compound": "O=C(Nc1cc(C(F)(F)F)cc(C(F)(F)F)c1)c1cc(Cl)ccc1O [IMD-0354] + COc1cc2c(Oc3ccc(NC(=O)C4(C(=O)Nc5ccc(F)cc5)CC4)cc3F)ccnc2cc1OCCCN1CCOCC1 [Foretinib] (partner 0.25 µM)", "assay": "relative viability (nuclei count vs DMSO), 5 days (fraction); higher = more cells survive", "conditions": "first compound 0.4 µM", "outline": "as §1"}
{"cell line": "NCI-H1623", "relative viability": 0.764}
{"cell line": "NCI-H727", "relative viability": 0.659}
{"cell line": "NCI-H1650", "relative viability": 0.581}
{"cell line": "EBC-1", "relative viability": 0.104}
{"cell line": "NCI-H1703", "relative viability": 0.368}
{"cell line": "NCI-H1993", "relative viability": 0.699}
{"cell line": "SK-LU-1", "relative viability": 0.457}
{"cell line": "NCI-H838", "relative viability": 0.463}
{"cell line": "LCLC-103H", "relative viability": 0.45}
{"cell line": "NCI-H520", "relative viability": 0.458}
{"cell line": "NCI-H2126", "relative viability": 0.813}
{"cell line": "EMC-BAC-2", "relative viability": 0.594}
{"cell line": "NCI-H2085", "relative viability": 0.791}
{"cell line": "Calu-6", "relative viability": 0.579}
{"cell line": "HCC-366", "relative viability": 0.441}
{"cell line": "NCI-H1666", "relative viability": 0.842}
{"cell line": "NCI-H596", "relative viability": 0.634}
{"cell line": "NCI-H1395", "relative viability": 0.98}
{"cell line": "NCI-H2087", "relative viability": 0.382}
{"cell line": "NCI-H2342", "relative viability": 0.794}
{"cell line": "LK-2", "relative viability": 0.515}
{"cell line": "H3255", "relative viability": 0.785}
{"cell line": "COR-L23", "relative viability": 0.349}
{"cell line": "COR-L 105", "relative viability": 0.67}
{"cell line": "IA-LM", "relative viability": 0.384}
{"cell line": "LOU-NH91", "relative viability": 0.575}
{"cell line": "ChaGo-K-1", "relative viability": 0.747}
{"cell line": "NCI-H358", "relative viability": 0.372}
{"cell line": "NCI-H2405", "relative viability": 0.926}
{"cell line": "A549", "relative viability": 0.481}
{"cell line": "SW 900", "relative viability": 0.444}
{"cell line": "NCI-H661", "relative viability": 0.681}
{"cell line": "NCI-H1299", "relative viability": 0.787}
{"cell line": "NCI-H1563", "relative viability": 0.837}
{"cell line": "ABC-1", "relative viability": 0.854}
{"cell line": "NCI-H650", "relative viability": 0.832}
{"compound": "O=C(Nc1cc(C(F)(F)F)cc(C(F)(F)F)c1)c1cc(Cl)ccc1O [IMD-0354] + COc1cc2c(Oc3ccc(NC(=O)C4(C(=O)Nc5ccc(F)cc5)CC4)cc3F)ccnc2cc1OCCCN1CCOCC1 [Foretinib] (partner 0.25 µM)", "assay": "relative viability (nuclei count vs DMSO), 5 days (fraction); higher = more cells survive", "conditions": "first compound 1.265 µM", "outline": "as §1"}
{"cell line": "NCI-H1623", "relative viability": 0.687}
{"cell line": "NCI-H727", "relative viability": 0.711}
{"cell line": "NCI-H1650", "relative viability": 0.207}
{"cell line": "EBC-1", "relative viability": 0.105}
{"cell line": "NCI-H1703", "relative viability": 0.299}
{"cell line": "NCI-H1993", "relative viability": 0.477}
{"cell line": "SK-LU-1", "relative viability": 0.169}
{"cell line": "NCI-H838", "relative viability": 0.579}
{"cell line": "LCLC-103H", "relative viability": 0.335}
{"cell line": "NCI-H520", "relative viability": 0.469}
{"cell line": "NCI-H2126", "relative viability": 0.875}
{"cell line": "EMC-BAC-2", "relative viability": 0.513}
{"cell line": "NCI-H2085", "relative viability": 0.538}
{"cell line": "Calu-6", "relative viability": 0.172}
{"cell line": "HCC-366", "relative viability": 0.216}
{"cell line": "NCI-H1666", "relative viability": 0.441}
{"cell line": "NCI-H596", "relative viability": 0.917}
{"cell line": "NCI-H1395", "relative viability": 0.449}
{"cell line": "NCI-H2087", "relative viability": 0.257}
{"cell line": "NCI-H2342", "relative viability": 0.735}
{"cell line": "LK-2", "relative viability": 1.11}
{"cell line": "H3255", "relative viability": 0.433}
{"cell line": "COR-L23", "relative viability": 0.138}
{"cell line": "COR-L 105", "relative viability": 0.932}
{"cell line": "IA-LM", "relative viability": 0.42}
{"cell line": "LOU-NH91", "relative viability": 0.154}
{"cell line": "ChaGo-K-1", "relative viability": 0.531}
{"cell line": "NCI-H358", "relative viability": 0.163}
{"cell line": "NCI-H2405", "relative viability": 0.365}
{"cell line": "A549", "relative viability": 0.0713}
{"cell line": "SW 900", "relative viability": 0.562}
{"cell line": "NCI-H661", "relative viability": 0.295}
{"cell line": "NCI-H1299", "relative viability": 0.267}
{"cell line": "NCI-H1563", "relative viability": 0.388}
{"cell line": "ABC-1", "relative viability": 0.37}
{"cell line": "NCI-H650", "relative viability": 0.515}
{"compound": "O=C(Nc1cc(C(F)(F)F)cc(C(F)(F)F)c1)c1cc(Cl)ccc1O [IMD-0354] + COc1cc2c(Oc3ccc(NC(=O)C4(C(=O)Nc5ccc(F)cc5)CC4)cc3F)ccnc2cc1OCCCN1CCOCC1 [Foretinib] (partner 0.25 µM)", "assay": "relative viability (nuclei count vs DMSO), 5 days (fraction); higher = more cells survive", "conditions": "first compound 4 µM", "outline": "as §1"}
{"cell line": "NCI-H1623", "relative viability": 0.457}
{"cell line": "NCI-H727", "relative viability": 0.477}
{"cell line": "NCI-H1650", "relative viability": 0.245}
{"cell line": "EBC-1", "relative viability": 0.0891}
{"cell line": "NCI-H1703", "relative viability": 0.16}
{"cell line": "NCI-H1993", "relative viability": 0.559}
{"cell line": "SK-LU-1", "relative viability": 0.221}
{"cell line": "NCI-H838", "relative viability": 0.403}
{"cell line": "LCLC-103H", "relative viability": 0.216}
{"cell line": "NCI-H520", "relative viability": 0.2}
{"cell line": "NCI-H2126", "relative viability": 0.494}
{"cell line": "EMC-BAC-2", "relative viability": 0.302}
{"cell line": "NCI-H2085", "relative viability": 0.225}
{"cell line": "Calu-6", "relative viability": 0.101}
{"cell line": "HCC-366", "relative viability": 0.046}
{"cell line": "NCI-H1666", "relative viability": 0.351}
{"cell line": "NCI-H596", "relative viability": 0.307}
{"cell line": "NCI-H1395", "relative viability": 0.306}
{"cell line": "NCI-H2087", "relative viability": 0.189}
{"cell line": "NCI-H2342", "relative viability": 0.453}
{"cell line": "LK-2", "relative viability": 0.222}
{"cell line": "H3255", "relative viability": 0.283}
{"cell line": "COR-L23", "relative viability": 0.131}
{"cell line": "COR-L 105", "relative viability": 0.296}
{"cell line": "IA-LM", "relative viability": 0.0844}
{"cell line": "LOU-NH91", "relative viability": 0.134}
{"cell line": "ChaGo-K-1", "relative viability": 0.258}
{"cell line": "NCI-H358", "relative viability": 0.126}
{"cell line": "NCI-H2405", "relative viability": 0.303}
{"cell line": "A549", "relative viability": 0.0502}
{"cell line": "SW 900", "relative viability": 0.246}
{"cell line": "NCI-H661", "relative viability": 0.24}
{"cell line": "NCI-H1299", "relative viability": 0.179}
{"cell line": "NCI-H1563", "relative viability": 0.44}
{"cell line": "ABC-1", "relative viability": 0.29}
